This note sets out measurements from PMC9964319, “Half-Sandwich Rhodium Complexes with Releasable N-Donor Monodentate Ligands: Solution Chemical Properties and the Possibility for Acidosis Activation” (Pharmaceutics, 2023).

Read-outs that look alike come from different tables or passages of the source.

Data set [1] concerns E. coli 32313 (resistant). The experiment in a line: Antibacterial assay, MIC in 96-well plates at different pH. In kind it is cell-based. In outline: (§1)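 Broth microdilution MIC per CLSI in Mueller Hinton broth, with overnight culture diluted 10,000-fold as inoculum. Each strain and compound tested at pH 5, 6, 7 and 8, in triplicate.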
Data set [2] deals with S. aureus 272123 (MRSA). The data set is described as above. The data set is classed as cell-based. In outline:
as §1

Data set [3] deals with E. coli ATCC 25922 (sensitive). The data set is described as above. The data set is classed as cell-based. In outline:
as §1

The subject of data set [4] is S. aureus ATCC 25923 (methicillin-susceptible). The data set is described as above. The data set is classed as cell-based. In outline: as §1
A short description of data set [5]: Computed fractions of mixed-ligand complexes as function of pH from formation constants. The data set is classed as physicochemical. The conditions noted are these: 100 μM; ratio 1:1. The protocol: With the help of these formation constants, the extent of complex formation can be estimated for a chosen monodentate ligand—complex chemical system under the desired conditions (concentration and pH). Figure 6 and Figure S25 show the computed fractions of the formed, mixed-ligand complexes between pH = 5 and 8 and at a 100 μM concentration (metal complex-to-monodentate ligand ratio = 1:1). The fraction at pH = 7.4 and at pH 6.0–6.7 were compared to each other.
As an example, the fractions of [Ru(p-cym)(8HQH−1)(mim)]^+ are shown in Figure S26 with decreasing concentration.
Formation constants shown in Figure 5 and in Table S2 were used for the calculation. Percentages indicate the fraction at pH = 7.4 (blue line) and in the range between pH = 6.0–6.7 (pink rectangle: possible pH of tumor microenvironment during acidosis).

A short description of data set [6]: Formation constants of mixed-ligand half-sandwich complexes (UV-vis and 1H NMR). In kind it is physicochemical. The conditions noted are these: aqua complex + monodentate ligand; I = 0.10 M (KCl); t = 25.0 °C; UV-vis and 1H NMR. The protocol:
NMR spectroscopic studies were carried out on a Bruker Avance III HD Ascend 500 Plus instrument. For the aqueous samples, ^1H NMR spectra were recorded with the WATERGATE water suppression pulse scheme using DSS internal standard. The highest peak of DSS was 0.00 ppm. The measurement was very similar to the UV-vis measurement since the complex–to–monodentate ligand ratio was also between 0–10 equivalents; the spectra were recorded after the given waiting time. […] This technique was useful in those cases where no spectral change was visible during the UV-vis titrations.
In both measurement methods, the formation constant (K) was obtained using the computer program PSEQUAD [38].
It is worthwhile to mention that the liberation of the bidentate ligand was not detected even at higher monodentate ligand excess (~10), which means that the disruption of the bond between the bidentate ligand and the metal center is not feasible under these conditions. The calculated formation constants are compared in Figure 5 and are collected in Table S2. The formation of the mixed-ligand complexes was not detected in three cases under the applied conditions, namely [Ru(p-cym)(en)(mim)]^2+, [Ru(p-cym)(phen)(mim)]^2+, and [Ru(p-cym)(en)(Py)]^2+. For these complexes, only a higher limit of the formation constant could be given, assuming that a maximum of 5% of the complex would form (limit of detection) under the conditions used for ^1H NMR spectroscopy. Based on Figure 5, the following trends are observed in the formation constants: (i) [RhCp*(en)(H2O)]^2+ and [RhCp*(phen)(H2O)]^2+ have a stronger monodentate ligand-binding ability than the Ru(p-cym) analogs; (ii) the formation constants of the [Ru(p-cym)(8HQH-1)(N)]^+ complexes are similar or somewhat higher than those of the RhCp* analogs; (iii) a stability trend for the monodentate ligand: mim > bim > Py (iv) and the bidentate ligand: 8HQH-1 > phen ≥ en can be seen.

Data set [7] is described as follows: Fractions of mixed-ligand complexes at 1:1 ratio at pH 6.0 and 7.4 by 1H NMR (screening of monodentate ligands). In kind it is physicochemical. Particulars: 1H NMR. The protocol: In the preliminary studies, the co-ordination ability of the monodentate ligands to the [RhCp*(en)(H2O)]^2+, [RhCp*(phen)(H2O)]^2+, and [RhCp*(8HQH-1)(H2O)]^+ complexes was tested (Chart 2). The samples contained the aqua complex and the monodentate ligand in a 1:1 ratio and were buffered at pH = 6.0 and pH = 7.4. For an ideal drug candidate, all of the monodentate ligand would be bound at pH 7.4; thus, the mixed-ligand complex would be present exclusively, which dissociates completely at pH 6.0.
Figure 1 Fractions of the formed mixed-ligand [RhCp*(N,N/O)(N)]^2+/+ complexes at c(complex):c(monodentate ligand) = 1:1 ratio measured at pH = 6.0 (full bars) and 7.4 (checkered bars). Fractions were determined by the integration of the peaks in the ^1H NMR spectra. The percentage values above the columns show the difference in the fractions of the mixed-ligand complex at the two pH values. {c([RhCp*(phen)(H2O)]^2+) = c([RhCp*(en)(H2O)]^2+) = 1 mM; c([RhCp*(8HQH−1)(H2O)]^+) = 500 μM; 10% D2O; pH = 6.0 or 7.4 (PBS’); t = 25.0 °C}. […] The percentages were assigned to (N,N) = en, (N,N) = phen and (N,O) = 8HQH-1 by bar colour only.

The nature of data set [8]: physchem.
Procedure: pH-potentiometric measurements were performed to determine the protonation constants (Kp) of the ligands and the concentration of the stock solutions. These measurements were carried out at 25.0 ± 0.1 °C in water in a pH range between 2.0 and 11.5, titrating with carbonate-free KOH solution (0.10 M). […] A Thermo Scientific 0710A0 benchtop pH meter (Waltham, MA, USA), equipped with a Metrohm combined electrode (type 6.0234.100) and a Metrohm 665 Dosimat burette (Metrohm, Herisau, Switzerland) was used for these measurements. […] The initial volume of the samples was 10.0 mL, and the ligand concentration was 2.0 mM in the samples. Samples were degassed by bubbling purified argon prior to and during the measurements. The computer program Hyperquad2013 [28] was utilized to determine the protonation constants of the ligands and concentration.
The protonation constants (Kp) were determined by pH-potentiometric and UV-vis spectrophotometric titrations in the presence of 0.1 M KCl (see Table 1 and Figures S21 and S22 for examples).
Data set [9] relates to Colo320 human colon adenocarcinoma cell line (doxorubicin-resistant). The experiment in a line: MTT assay, cytotoxicity at pH 6 and 7. The data set is classed as cell-based. The conditions noted are these: Homo sapiens, COLO 320, Colo320, 72 h incubation, read-out: IC50. The gist of the method:
(§2)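 Colo205 and Colo320 cells at 1 × 10^4 cells/well in RPMI 1640 (10% FBS, HEPES) adjusted to pH 6.0 or 7.0, exposed to two-fold serial dilutions of freshly prepared complexes for 72 h at 37 °C. MTT read at 540/630 nm after SDS solubilisation. Values from sigmoidal dose–response fits, triplicates.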
A general note: Formazan colour is commonly taken as a measure of viable cells.

Data set [10] concerns Colo205 human colon adenocarcinoma cell line (doxorubicin-sensitive). The experiment in a line: MTT assay, cytotoxicity at pH 6 and 7. In kind it is cell-based. The conditions noted are these: Homo sapiens, COLO 205, Colo205, 72 h incubation, read-out: IC50. In outline:
as §2

Where [11] appears, read: E. coli resistant, pH 5, after one day, read-out: MIC.
The mark [12] stands for this setting: E. coli resistant, pH 8, after one day, read-out: MIC.
Setting [13] is: pH 5, after one day, read-out: MIC.
The mark [14] stands for this setting: pH 8, after one day, read-out: MIC.
[15] abbreviates: E. coli sensitive, pH 5, after one day, read-out: MIC.
The mark [16] stands for this setting: E. coli sensitive, pH 8, after one day, read-out: MIC.
Where [17] appears, read: S. aureus sensitive, pH 8, after one day, read-out: MIC.

The MIC is the lowest concentration that inhibits growth of the organism. Regarding `Cc1c(C)c(C)[c-](C)c1C.Cn1ccnc1.[O-]c1cccc2cccnc12.[Rh+3]` [[RhCp*(8HQH−1)(mim)]^+], the MIC in data set [1] (setting [11]) is > 100 µM; in [1] (E. coli resistant, pH 6, after one day, listed as [RhCp*(8HQH-1)Cl] +mim, read-out: MIC) it was >100 µM; in [1] (E. coli resistant, pH 7, after one day, listed as [RhCp*(8HQH-1)Cl] +mim, read-out: MIC) it was >100 µM; in [1] (setting [12]), > 100 µM; in data set [2] (setting [13]), 50 µM; in data set [2] (pH 6, after one day, read-out: MIC), 25 µM. Further, the MIC in [2] (pH 7, after one day, read-out: MIC) was 12.5 µM; in data set [2] (setting [14]) it was 12.5 µM; in data set [3] (setting [15]), > 100 µM; in [3] (E. coli sensitive, pH 6, after one day, listed as [RhCp*(8HQH-1)Cl] +mim, read-out: MIC) it was >100 µM; in data set [3] (E. coli sensitive, pH 7, after one day, listed as [RhCp*(8HQH-1)Cl] +mim, read-out: MIC) it was >100 µM; in [3] (setting [16]) it was > 100 µM. Also, the minimal inhibitory concentration (MIC) stood at 12.5 µM in data set [4] (S. aureus sensitive, pH 7, after one day, read-out: MIC) and 12.5 µM in data set [4] (setting [17]). Moreover, the “difference in computed fraction (dissociated) when pH decreases from 7.4 to 6.0” value in data set [5] was determined as 13%. For the same molecule, the “Formation constant logK of mixed-ligand complex” value (“Formation constant logK” below) in data set [6] turned out to be 4.7 ± 0.2.
Regarding `Cc1c(C)c(C)[c-](C)c1C.Cn1ccnc1.NCCN.[Rh+3]` [[RhCp*(en)(mim)]^2+], the “Formation constant logK” value in data set [6] came to 4.2 ± 0.1. Moreover, the “Fraction of mixed-ligand complex” value in data set [7] (pH 6.0, PBS') was determined as 52%; in [7] (pH 7.4, PBS') it was 82%.
Regarding `Cc1c(C)c(C)[c-](C)c1C.Cn1ccnc1.[Rh+3].c1cnc2c(c1)ccc1cccnc12` [[RhCp*(phen)(mim)]^2+], the minimal inhibitory concentration (MIC) is given as > 100 µM in data set [1] (setting [11]); >100 µM in [1] (E. coli resistant, pH 6, after one day, listed as [RhCp*(phen)Cl]Cl +mim, read-out: MIC); >100 µM in data set [1] (E. coli resistant, pH 7, after one day, listed as [RhCp*(phen)Cl]Cl +mim, read-out: MIC); > 100 µM in data set [1] (setting [12]); > 100 µM in data set [2] (setting [13]); >100 µM in [2] (pH 6, after one day, listed as [RhCp*(phen)Cl]Cl +mim, read-out: MIC). Moreover, the MIC is >100 µM in [2] (pH 7, after one day, listed as [RhCp*(phen)Cl]Cl +mim, read-out: MIC); > 100 µM in [2] (setting [14]); > 100 µM in data set [3] (setting [15]); >100 µM in data set [3] (E. coli sensitive, pH 6, after one day, listed as [RhCp*(phen)Cl]Cl +mim, read-out: MIC); >100 µM in [3] (E. coli sensitive, pH 7, after one day, listed as [RhCp*(phen)Cl]Cl +mim, read-out: MIC); > 100 µM in [3] (setting [16]). Further, the MIC in [4] (S. aureus sensitive, pH 7, after one day, listed as [RhCp*(phen)Cl]Cl +mim, read-out: MIC) is >100 µM; in data set [4] (setting [17]), > 100 µM. Further, in data set [5], the “difference in computed fraction (dissociated) when pH decreases from 7.4 to 6.0” value is reported as 25%. In addition, in data set [6], the “Formation constant logK” value stood at 5.5 ± 0.1.
For orientation: pKa means the negative logarithm of the acid dissociation constant. Higher therefore signals a weaker acid or stronger base. As for `NCc1ccccc1` [benzylamine], the pKa in data set [8] (water with 0.10 M KCl) is 9.42 ± 0.01.
As usually defined, the IC50 is the concentration that gives 50% inhibition. For `Cn1ccnc1` [mim, 1-methylimidazole, reference compound], the MIC in data set [1] (Escherichia coli, 24 h, E. coli resistant, pH 5, after one day, read-out: MIC) was > 100 µM; in data set [1] (Escherichia coli, 24 h, E. coli resistant, pH 6, after one day, read-out: MIC) it was > 100 µM; in data set [1] (Escherichia coli, 24 h, E. coli resistant, pH 7, after one day, read-out: MIC), > 100 µM; in data set [1] (Escherichia coli, 24 h, E. coli resistant, pH 8, after one day, read-out: MIC) it was > 100 µM; in [1] (Escherichia coli, any of the bacterial strains, resistant E. coli, read-out: MIC (no antibacterial effect)), > 100 µM; in data set [2] (Staphylococcus aureus, 24 h, pH 5, after one day, read-out: MIC), > 100 µM. In addition, the MIC in data set [2] (Staphylococcus aureus, 24 h, pH 6, after one day, read-out: MIC) was > 100 µM; in [2] (Staphylococcus aureus, 24 h, pH 7, after one day, read-out: MIC), > 100 µM; in data set [2] (Staphylococcus aureus, 24 h, pH 8, after one day, read-out: MIC), > 100 µM; in [2] (Staphylococcus aureus, any of the bacterial strains, read-out: MIC (no antibacterial effect)), > 100 µM; in data set [3] (Escherichia coli, ATCC25922, 24 h, E. coli sensitive, pH 5, after one day, read-out: MIC) it was > 100 µM; in [3] (Escherichia coli, ATCC25922, 24 h, E. coli sensitive, pH 6, after one day, read-out: MIC) it was > 100 µM. In addition, the minimum inhibitory concentration (MIC) in data set [3] (Escherichia coli, ATCC25922, 24 h, E. coli sensitive, pH 7, after one day, read-out: MIC) was > 100 µM; in data set [3] (Escherichia coli, ATCC25922, 24 h, E. coli sensitive, pH 8, after one day, read-out: MIC), > 100 µM; in data set [3] (Escherichia coli, ATCC25922, any of the bacterial strains, E. coli, read-out: MIC (no antibacterial effect)), > 100 µM; in data set [4] (Staphylococcus aureus, ATCC25923, 24 h, S. aureus sensitive, pH 7, after one day, read-out: MIC) it was > 100 µM; in data set [4] (Staphylococcus aureus, ATCC25923, 24 h, S. aureus sensitive, pH 8, after one day, read-out: MIC), > 100 µM; in data set [4] (Staphylococcus aureus, ATCC25923, any of the bacterial strains, S. aureus, read-out: MIC (no antibacterial effect)) it was > 100 µM. Further, the IC50 in [9] (pH 6), in data set [9] (pH 7), in [10] (pH 6) and in [10] (pH 7) was > 100 µM throughout. The pKa in [8] worked out at 7.14 ± 0.01.
